Laboratory results reported in article PMC12371506 (ACS Bio & Med Chem Au, 2025).
Residues, ends and D or L forms follow the SMILES beside them. *: point of attachment. Cbz = O=C(OCc1ccccc1)*; CH2F = FC*

Tests used:
[1] = target: T1, caspase-9 (Homo sapiens, UniProt P55211); experiment: In vitro inhibition assay, caspase-9; format: biochemical
T1 sequence (P55211 1-315 limits assumed): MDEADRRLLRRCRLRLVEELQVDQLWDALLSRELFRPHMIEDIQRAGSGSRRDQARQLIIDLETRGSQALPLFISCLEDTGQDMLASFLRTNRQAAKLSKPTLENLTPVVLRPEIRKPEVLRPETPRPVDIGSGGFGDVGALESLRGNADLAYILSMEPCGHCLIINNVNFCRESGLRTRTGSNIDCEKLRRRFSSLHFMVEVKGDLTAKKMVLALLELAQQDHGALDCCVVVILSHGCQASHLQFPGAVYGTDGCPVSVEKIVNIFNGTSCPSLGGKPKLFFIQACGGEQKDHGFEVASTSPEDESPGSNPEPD
T1 sequence (P55211 331-416 limits assumed): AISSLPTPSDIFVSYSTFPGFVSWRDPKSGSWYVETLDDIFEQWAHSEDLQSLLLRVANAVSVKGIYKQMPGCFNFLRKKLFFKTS

[2] = test system: HCC1806 triple-negative breast cancer cells; experiment: TNF-α-induced extrinsic apoptosis in HCC1806 cells; details: 10 μM inhibitor 30 min, then TNF-α; early time points (2–6 h)
[3] = test system: THP1 monocytes; experiment: TRAIL-induced extrinsic apoptosis in THP1 monocytes; format: cell-based, human; details: 25 μM inhibitor

IC50 [1] [nM]	Compound	caspases-3/7 activation (caspase-3/7 dye) [2]	relative potency at inhibiting caspases-3/7 activity (caspases-3/7 dye) [3]
540 ± 260	CCO[C@@H]1OC(=O)C[C@@H]1NC(=O)[C@@H]1CCCN1C(=O)[C@@H](NC(=O)c1ccc(N)c(Cl)c1)C(C)(C)C [VX-765, (S)-1-((S)-2-{[1-(4-amino-3-chloro-phenyl)-methanoyl]-amino}-3,3-dimethyl-butanoyl)-pyrrolidine-2-carboxylic acid ((2R,3S)-2-ethoxy-5-oxo-tetrahydro-furan-3-yl)-amide]		
1470 ± 620	CC[C@H](C)[C@H](NC(=O)OCc1ccccc1)C(=O)N[C@@H](CCC(=O)OC)C(=O)N[C@H](C(=O)N[C@@H](CC(=O)OC)C(=O)CF)[C@@H](C)O [zIETD-FMK] (Cbz-IE(OMe)TD(OMe)-CH2F)	inhibition of caspases-3/7 activation	
800 ± 320	COC(=O)CC[C@H](NC(=O)[C@H](CC(C)C)NC(=O)OCc1ccccc1)C(=O)N[C@@H](Cc1c[nH]cn1)C(=O)N[C@@H](CC(=O)OC)C(=O)CF [zLEHD-FMK] (Cbz-LE(OMe)HD(OMe)-CH2F)		more potent than zIETD-FMK
